According to PubChem BioAssay (NCI):
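Tested at 5 concentrations; 48 h exposure; 96-well plates; endpoints linearly interpolated, else capped at highest concentration. At the TGI there is no net growth.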 Where a SMILES comes first, the peptide text is derived from it. The star is where a group is joined. Cbz = O=C(OCc1ccccc1)*

Key:
Assay in all cases: NCI tumour cell line growth inhibition, 48 h
CCRF-CEM leukemia = test system: CCRF-CEM leukemia
ACHN renal = test system: ACHN renal
UACC-257 melanoma = test system: UACC-257 melanoma
MDA-MB-231 breast = test system: MDA-MB-231 breast
SK-MEL-2 melanoma = test system: SK-MEL-2 melanoma
SNB-75 CNS = test system: SNB-75 CNS
NCI-H226 lung = test system: NCI-H226 lung
HS 578T breast = test system: HS 578T breast
TK-10 renal = test system: TK-10 renal
SF-539 CNS = test system: SF-539 CNS
HT29 colon = test system: HT29 colon
RXF 393 renal = test system: RXF 393 renal
SK-MEL-5 melanoma = test system: SK-MEL-5 melanoma

Compound	TGI (CCRF-CEM leukemia)	TGI (ACHN renal)	TGI (UACC-257 melanoma)	TGI (MDA-MB-231 breast)	TGI (SK-MEL-2 melanoma)	TGI (SNB-75 CNS)	TGI (NCI-H226 lung)	TGI (HS 578T breast)	TGI (TK-10 renal)	TGI (SF-539 CNS)	TGI (HT29 colon)	TGI (RXF 393 renal)	TGI (SK-MEL-5 melanoma)
O=c1[nH]c2nc3ccccc3c(=O)n2/c1=C/c1cccs1	> 100 µM	> 100 µM	> 100 µM	> 100 µM	> 100 µM	> 100 µM	> 100 µM	> 100 µM	> 100 µM	> 100 µM	> 100 µM	> 100 µM	> 100 µM
CC(NC(=O)c1c(O)[nH]c(=S)[nH]c1=O)c1ccc([N+](=O)[O-])cc1 (configuration not stated)	> 100 µM	> 100 µM	> 100 µM	> 100 µM	> 100 µM	73.3 µM	> 100 µM	> 100 µM	> 100 µM	> 100 µM	> 100 µM	> 100 µM	> 100 µM
C(=Nc1ccc2c(c1)Cc1ccccc1-2)c1ccccn1	> 100 µM	> 100 µM	79.1 µM	> 100 µM	> 100 µM	> 100 µM	> 100 µM	> 100 µM	> 100 µM		> 100 µM	> 100 µM	> 100 µM
N#Cc1cc2c(cc1Cl)Sc1nnc(Nc3ccccc3)n1S2(=O)=O	> 24 µM	3.32 µM	3.58 µM	4.7 µM	8.26 µM	10.7 µM	5.99 µM	6.63 µM	13.3 µM	4.41 µM	6.91 µM	4.48 µM	6.84 µM
CN1CCc2c(sc3[nH]c(=S)[nH]c(=S)c23)C1	> 100 µM	> 100 µM	> 100 µM	> 100 µM	> 100 µM	> 100 µM	> 100 µM	> 100 µM	> 100 µM	> 100 µM	> 100 µM	> 100 µM	> 100 µM
COCn1cnc2c(=O)nc(SC)n(-c3ccccc3)c21	> 100 µM	> 100 µM	> 100 µM	> 100 µM	> 100 µM	> 100 µM	> 100 µM	> 100 µM	> 100 µM	> 100 µM	> 100 µM	> 100 µM	> 100 µM
Cn1nnnc1SC(F)(F)c1nc2ccccc2o1	> 100 µM	> 100 µM	> 100 µM	> 100 µM	> 100 µM	> 100 µM	> 100 µM	> 100 µM	> 100 µM	> 100 µM	> 100 µM	> 100 µM	> 100 µM
CCOC(=O)CCC(NC(=O)C(Cc1ccccc1)NC(=O)OCc1ccccc1)C(=O)OCC (stereo not drawn) (Cbz-Phe-Glu(OEt)-OEt; configuration not given here)	> 64.7 µM	31.2 µM	30.5 µM	29.5 µM	48 µM	35.1 µM	32.6 µM	35 µM	34.6 µM	37.6 µM	42.1 µM	32.1 µM	28.8 µM
CC1CC(Nc2ccc(Br)cc2)N(C(=O)c2ccc(Br)cc2)O1 (configuration not stated)	> 10 µM	> 10 µM	> 10 µM	> 10 µM	> 10 µM	> 10 µM	> 10 µM	> 10 µM	> 10 µM	> 10 µM	> 10 µM	> 10 µM	> 10 µM
Cc1ccnc2c1C(=O)C1=C(OC(C)(C)CC1O)C2=O (configuration not stated)	44.5 µM	22.9 µM	3.47 µM	15.4 µM	8.83 µM	0.297 µM	21.2 µM	15.2 µM	24.4 µM	10.4 µM	10.8 µM	23 µM	2.6 µM
COCCn1cnc2c(Cl)nc(Nc3ccccc3)nc21	46.9 µM	36.4 µM	> 100 µM	75.6 µM	47.4 µM	> 100 µM	> 100 µM	61.6 µM	> 100 µM	> 100 µM	> 100 µM	47.4 µM	> 100 µM
CCOC(=O)C(NC(=O)c1ccccc1)(N1CCN(c2cc3c(cc2F)c(=O)c(C(=O)O)cn3C2CC2)CC1)C(F)(F)F (configuration not stated)	14.6 µM	58.9 µM		31 µM	38.9 µM	69.9 µM	45.2 µM	66.3 µM		30.9 µM		36.5 µM	29.4 µM
O=c1cc(NNc2cccc(Cl)c2)[nH]c(=O)[nH]1	68.8 µM	> 100 µM	> 100 µM	32.1 µM	> 100 µM	> 100 µM	> 100 µM	> 100 µM	36.2 µM	> 100 µM	> 100 µM	> 100 µM	> 100 µM
CN1CC=C(c2c(N)nc(N)[nH]c2=O)CC1	> 100 µM	> 100 µM	> 100 µM	> 100 µM	> 100 µM	> 100 µM	> 100 µM	> 100 µM		> 100 µM	> 100 µM	> 100 µM	> 100 µM
Oc1c(Br)ccc2cccnc12	3.98 µM	55.8 µM		24.7 µM	> 100 µM	> 100 µM	38.5 µM	72.5 µM	> 100 µM	> 50.6 µM	> 35.8 µM	32.4 µM	> 39.2 µM
O=C1CCSCCC(=O)Nc2ccccc2N1	> 100 µM	> 100 µM	> 100 µM	> 100 µM	> 100 µM		> 100 µM	> 100 µM	> 100 µM	> 100 µM	> 100 µM	> 100 µM	> 100 µM
O=Cc1ccc(-c2ccc(-c3ccc(CO)s3)o2)s1	> 23.7 µM	> 100 µM	0.506 µM	> 80.3 µM	97 µM	69.1 µM	0.291 µM	59.5 µM	0.627 µM	> 81.6 µM	> 53.2 µM	47.6 µM	17.7 µM
COc1ccc(N2C(=O)C(=O)N(c3ccc(N=Nc4ccccc4)cc3)C2=S)cc1	> 100 µM	34.4 µM	34.3 µM	41.5 µM	35.1 µM	55.5 µM	48.4 µM	> 100 µM	50.4 µM	34.2 µM	37.1 µM	32.4 µM	30.4 µM
